In the supplement of paper PMC11061612:

Experiments:
EW-3 (Ewing's Sarcoma) [1] = experiment: Bliss excess, mean over the matrix (fraction); higher = more synergy
In short: (§1)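 After 24 hours at 37°C and 5% CO2 in 1536-well plates, cells in DMEM/F12 or RPMI plus 10% FBS received two-drug dose matrices for 72 hours. Viability came from CellTiter-Glo 2.0 luminescence and was scaled as inhibition, anchored at 0 by vehicle wells and at 1 by blank wells. Combination Emax is taken as the second-highest inhibition in the matrix, and Bliss excess as the observed combination effect less EA + EB − EA·EB, with EA and EB the single-agent effects.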

GI-1 (Glioblastoma) [2] = experiment: as above
In short: as §1

[3] = tested on: H-EMC-SS (Chondrosarcoma); experiment: as above
In short: as §1

[4] = tested on: HSC-2 (Oral Cavity Carcinoma); experiment: as above
In short: as §1

[5] = tested on: JHH-7 (Hepatocellular Carcinoma); experiment: as above
In short: as §1

[6] = tested on: KINGS-1 (Low Grade Glioma); experiment: as above
In short: as §1

[7] = tested on: LC4-1 (B-Lymphoblastic Leukemia); experiment: as above
In short: as §1

NB7 (Neuroblastoma) [8] = experiment: as above
In short: as §1

[9] = tested on: NCI-N87 (Gastric Carcinoma); experiment: as above
In short: as §1

[10] = tested on: OCUB-M (Breast Carcinoma); experiment: as above
In short: as §1

[11] = tested on: OCUM-1 (Gastric Carcinoma); experiment: as above
In short: as §1

[12] = tested on: SCC-9 (Oral Cavity Carcinoma); experiment: as above
In short: as §1

[13] = tested on: SNU-C1 (Colorectal Carcinoma); experiment: as above
In short: as §1

[14] = tested on: TGBC11TKB (Gastric Carcinoma); experiment: as above
In short: as §1

[15] = tested on: VMRC-LCD (Lung Adenocarcinoma); experiment: as above
In short: as §1

EW-3 (Ewing's Sarcoma) [16] = experiment: combination Emax (second highest fraction inhibited in the dose matrix, 72 h); higher = more inhibition; extreme values may be limits of the assay
In short: as §1

GI-1 (Glioblastoma) [17] = experiment: as above
In short: as §1

[18] = tested on: H-EMC-SS (Chondrosarcoma); experiment: as above
In short: as §1

[19] = tested on: HSC-2 (Oral Cavity Carcinoma); experiment: as above
In short: as §1

[20] = tested on: JHH-7 (Hepatocellular Carcinoma); experiment: as above
In short: as §1

[21] = tested on: KINGS-1 (Low Grade Glioma); experiment: as above
In short: as §1

[22] = tested on: LC4-1 (B-Lymphoblastic Leukemia); experiment: as above
In short: as §1

NB7 (Neuroblastoma) [23] = experiment: as above
In short: as §1

[24] = tested on: NCI-N87 (Gastric Carcinoma); experiment: as above
In short: as §1

[25] = tested on: OCUB-M (Breast Carcinoma); experiment: as above
In short: as §1

[26] = tested on: OCUM-1 (Gastric Carcinoma); experiment: as above
In short: as §1

[27] = tested on: SCC-9 (Oral Cavity Carcinoma); experiment: as above
In short: as §1

[28] = tested on: SNU-C1 (Colorectal Carcinoma); experiment: as above
In short: as §1

[29] = tested on: TGBC11TKB (Gastric Carcinoma); experiment: as above
In short: as §1

[30] = tested on: VMRC-LCD (Lung Adenocarcinoma); experiment: as above
In short: as §1
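For Bliss excess, mean over the matrix in this document: after 72 h of two-drug dosing.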

Compound | Bliss excess (EW-3 (Ewing's Sarcoma) [1]) | Bliss excess (GI-1 (Glioblastoma) [2]) | Bliss excess [3] | Bliss excess [4] | Bliss excess [5] | Bliss excess [6] | Bliss excess [7] | Bliss excess (NB7 (Neuroblastoma) [8]) | Bliss excess [9] | Bliss excess [10] | Bliss excess [11] | Bliss excess [12] | Bliss excess [13] | Bliss excess [14] | Bliss excess [15] | combination Emax (EW-3 (Ewing's Sarcoma) [16]) | combination Emax (GI-1 (Glioblastoma) [17]) | combination Emax [18] | combination Emax [19] | combination Emax [20] | combination Emax [21] | combination Emax [22] | combination Emax (NB7 (Neuroblastoma) [23]) | combination Emax [24] | combination Emax [25] | combination Emax [26] | combination Emax [27] | combination Emax [28] | combination Emax [29] | combination Emax [30]
O=C(c1cc(Cc2n[nH]c(=O)c3ccccc23)ccc1F)N1CCN(C(=O)C2CC2)CC1 [Olaparib] + CN(CC[C@H](CSC1=CC=CC=C1)NC2=C(C=C(C=C2)S(=O)(=O)NC(=O)C3=CC=C(C=C3)N4CCC(CC4)[C@H](C5=CC=CC=C5C6=CC=C(C=C6)Cl)O)S(=O)(=O)C(F)(F)F)CCO [AZD4320] (first compound max 10 µM, 7x7, partner max 1 µM) | 0.0125 | 0.0255 | 0.0051 | 0.0039 | -0.0326 | -0.0792 | 0.0153 | -0.0251 | -0.0729 | -0.0115 | 0.0129 | -0.0395 | -0.055 | 0.0082 | -0.029 | 0.904 | 0.302 | 0.422 | 0.201 | 0.203 | 0.646 | 1 | 0.393 | 0.503 | 0.454 | 0.834 | 0.398 | 0.613 | 0.42 | 0.114
N#Cc1cnc(Nc2cc(NC[C@H]3CNCCO3)c(C(F)(F)F)cn2)cn1 [SRA737] + O=c1[nH]cc(F)c(=O)[nH]1 [5-Fluorouracil] (first compound max 10 µM, 7x7, partner max 20 µM) | -0.0165 | -0.0397 | -0.0371 | -0.0197 |  | -0.029 | -0.0214 | -0.0058 | 0.0586 | 0.0349 | -0.0345 | 0.053 | 0.0964 | 0.0518 | -0.0371 | 0.663 | 0.683 | 0.198 | 0.382 | 0.392 | 0.122 | 0.847 | 0.431 | 0.628 | 0.302 | 0.416 | 0.319 | 0.803 | 0.869 | 0.668
Cc1cc2ncnn2cc1Nc1ncc2c(n1)n(C1CCOCC1)c(=O)n2C [AZD7648] + COc1cc([C@@H]2c3cc4c(cc3[C@@H](O[C@@H]3O[C@@H]5CO[C@@H](C)O[C@H]5[C@H](O)[C@H]3O)[C@H]3COC(=O)[C@H]23)OCO4)cc(OC)c1O [Etoposide] (first compound max 10 µM, 7x7, partner max 10 µM) | 0.0762 | 0.0946 | 0.0506 | 0.128 | 0.0547 | 0.061 | 0.0856 | 0.0544 | -0.0062 | 0.0176 | 0.0899 | 0.006 | -0.0254 | -0.0517 | 0.171 | 0.855 | 0.907 | 0.524 | 0.866 | 0.642 | 0.516 | 1 | 0.909 | 0.697 | 0.885 | 0.557 | 0.481 | 0.275 | 0.0573 | 0.555
O=C(c1cc(Cc2n[nH]c(=O)c3ccccc23)ccc1F)N1CCN(C(=O)C2CC2)CC1 [Olaparib] + Cc1c2c(nn1C)CSCc1cc(n(C)n1)CSc1cc(c3ccccc3c1)OCCCc1c(C(=O)O)n(C)c3c-2c(Cl)ccc13 [AZD5991] (first compound max 10 µM, 7x7, partner max 1 µM) | -0.0215 | 0.0065 | -0.0401 | -0.0082 | -0.0457 | -0.0514 | -0.0181 | -0.0154 | -0.0285 | -0.0142 | -0.0497 | -0.0478 | -0.0155 | 0.0015 | -0.0349 | 0.869 | 0.51 | 0.129 | 0.88 | 0.0758 | 0.0927 | 0.955 | 0.595 | 0.203 | 0.924 | 0.0756 | 0.154 | 0.362 | 0.509 | 0.111
C=CCn1c(=O)c2cnc(Nc3ccc(N4CCN(C)CC4)cc3)nc2n1-c1cccc(C(C)(C)O)n1 [AZD1775] + Nc1ccn([C@@H]2O[C@H](CO)[C@@H](O)C2(F)F)c(=O)n1 [Gemcitabine] (first compound max 1 µM, partner max 0.3 µM) | 0.0204 | 0.0649 | 0.014 | 0.0227 | -0.0298 | -0.0065 | 0.0478 | 0.0441 | -0.0481 | 0.0679 | 0.0616 | 0.0215 | -0.0308 | 0.0011 | -0.0497 | 0.904 | 0.916 | 0.649 | 0.947 | 0.399 | 0.341 | 0.945 | 0.721 | 0.735 | 0.955 | 0.656 | 0.375 | 0.485 | 0.918 | 0.6
O=C(c1cc(Cc2n[nH]c(=O)c3ccccc23)ccc1F)N1CCN(C(=O)C2CC2)CC1 [Olaparib] + COc1nnc2ccc(N3CCC(c4ccc(OCCN5CCN(C)C(=O)[C@H]5C)cc4)CC3)nn12 [AZD5153] (first compound max 10 µM, 7x7, partner max 1 µM) | -0.0528 | 0.0092 | -0.0456 | -0.0679 | -0.0336 | -0.0773 | -0.115 | -0.0339 | -0.019 | -0.0609 | -0.0755 | -0.0418 | -0.0531 | -0.0543 | -0.0707 | 0.842 | 0.738 | 0.218 | 0.563 | 0.237 | 0.0844 | 0.899 | 0.359 | 0.528 | 0.384 | 0.488 | 0.288 | 0.524 | 0.284 | 0.35
Cc1c2c(nn1C)CSCc1cc(n(C)n1)CSc1cc(c3ccccc3c1)OCCCc1c(C(=O)O)n(C)c3c-2c(Cl)ccc13 [AZD5991] + CC(=O)O[C@H]1C(=O)[C@@]2(C)[C@H]([C@H](OC(=O)c3ccccc3)[C@]3(O)C[C@H](OC(=O)[C@H](O)[C@@H](NC(=O)c4ccccc4)c4ccccc4)C(C)=C1C3(C)C)[C@]1(OC(C)=O)CO[C@@H]1C[C@@H]2O [Paclitaxel] (first compound max 1 µM, 7x7, partner max 3 µM) | -0.0365 | -0.0373 | 0.0049 | -0.0534 | -0.0494 | 0.0134 | -0.0585 | 0.0901 | -0.0041 | 0.0387 | 0.027 |  | -0.024 | -0.0368 |  | 0.917 | 0.989 | 0.285 | 1 | 0.603 | 0.407 | 0.988 | 0.979 | 0.555 | 1 | 0.321 | 0.614 | 0.545 | 0.957 | 0.864
N#Cc1cnc(Nc2cc(NC[C@H]3CNCCO3)c(C(F)(F)F)cn2)cn1 [SRA737] + CCc1c2c(nc3ccc(O)cc13)-c1cc3c(c(=O)n1C2)COC(=O)[C@]3(O)CC [SN-38] (first compound max 10 µM, 7x7, partner max 0.3 µM) | -0.0562 | 0.0169 | -0.0264 | -0.0648 | 0.0753 | -0.0051 | -0.129 | 0.0757 | -0.0812 | 0.231 | -0.11 | 0.0297 | 0.0746 | 0.0031 | 0.102 | 0.865 | 0.973 | 0.544 | 0.96 | 0.616 | 0.362 | 0.941 | 0.952 | 0.732 | 0.935 | 0.695 | 0.518 | 0.748 |  | 0.812
CN(CCO)CC[C@H](CSc1ccccc1)Nc1ccc(S(=O)(=O)NC(=O)c2ccc(N3CCC([C@@H](O)c4ccccc4-c4ccc(Cl)cc4)CC3)cc2)cc1S(=O)(=O)C(F)(F)F [AZD4320] + CS(=O)(=O)CCNCc1ccc(-c2ccc3ncnc(Nc4ccc(OCc5cccc(F)c5)c(Cl)c4)c3c2)o1 [Lapatinib] (first compound max 1 µM, 7x7, partner max 10 µM) | 0.0104 | 0.0992 | 0.0321 | 0.114 | -0.0153 | 0.0401 | 0.0427 | 0.0034 | 0.0453 |  | 0.0032 | 0.0105 | 0.0215 | 0.0791 | 0.0981 | 0.984 | 0.962 | 0.439 | 1 | 0.971 | 0.962 | 1 | 0.189 | 0.982 | 0.887 | 1 | 0.99 | 0.666 | 0.674 | 0.923
